17 compounds from patent publication US11439622B2 (OXFORD UNIVERSITY INNOVATION LIMITED, priority 2015, dated 2022) can be followed below.

In test [1] the target is NDM-1 (New Delhi metallo-β-lactamase-1) (Klebsiella pneumoniae, UniProt C7C422). The test is described as follows: Enzyme inhibition assay, NDM-1. The format is biochemical. Particulars: for IC50: read-out: pIC50 NDM-1 (converted). How it is done: (§1) The biological activity of the compounds of the present invention was tested using standard assay protocols.^7 The following representative enzymes NDM-1 (New Delhi metallo-β-lactamase-1), IMP-1 (Imipenemase-1) and VIM-2 (Veronese metallo-β-lactamase-2) were selected from different clinically relevant B1 metallo-β-lactamases.

A further test addresses IMP-1 (Imipenemase-1) (Serratia marcescens, UniProt P52699). Briefly: Enzyme inhibition assay, IMP-1. The format is biochemical. The conditions noted are these: read-out: pIC50 IMP-1 (converted). How it is done: as §1

Chain of NDM-1 (New Delhi metallo-β-lactamase-1) (C7C422 29-270, looked up, species assumed): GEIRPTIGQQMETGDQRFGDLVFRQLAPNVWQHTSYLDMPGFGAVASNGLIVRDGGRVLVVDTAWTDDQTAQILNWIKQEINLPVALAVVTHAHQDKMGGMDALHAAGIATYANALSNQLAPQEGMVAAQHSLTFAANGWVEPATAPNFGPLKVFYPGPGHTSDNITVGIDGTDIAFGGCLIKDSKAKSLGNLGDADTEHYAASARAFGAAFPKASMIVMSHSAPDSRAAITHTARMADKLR
Chain of IMP-1 (Imipenemase-1) (P52699 19-246, looked up, species assumed): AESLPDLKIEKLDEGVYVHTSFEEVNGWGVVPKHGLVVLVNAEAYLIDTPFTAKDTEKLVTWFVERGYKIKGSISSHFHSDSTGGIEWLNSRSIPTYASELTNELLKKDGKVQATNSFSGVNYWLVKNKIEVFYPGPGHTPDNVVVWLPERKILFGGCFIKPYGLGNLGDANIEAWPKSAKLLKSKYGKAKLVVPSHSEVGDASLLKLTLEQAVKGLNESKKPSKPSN

Turning to `Cc1cccc2c(C3=CCCC3)c(C(=O)O)[nH]c12` [Example 27, 3-(cyclopent-1-en-1-yl)-7-methyl-1H-indole-2-carboxylic acid], the IC50 in test [1] is 79.4 nM.
The same measure, in the same setting: for `Cc1cccc2c(-c3ccc(Cl)cc3)c(C(=O)O)n(C)c12` [Example 35, 3-(4-chlorophenyl)-1,7-dimethyl-indole-2-carboxylic acid] the value was 501 nM; for `Cc1cccc2c(I)c(C(=O)O)[nH]c12` [Example 46, 3-iodo-7-methyl-1H-indole-2-carboxylic acid], 631 nM.
In the case of `O=C(O)c1[nH]c2c(C(F)(F)F)cccc2c1-c1ccc(F)cc1` [Example 51, 3-(4-fluorophenyl)-7-(trifluoromethyl)-1H-indole-2-carboxylic acid], the IC50 in test [1] was 251 nM; on IMP-1 (Imipenemase-1), 2000 nM.
With `CNC(=O)c1ccc(-c2c(C(=O)O)[nH]c3c(C(C)C)cccc23)cc1` [Example 87, 7-isopropyl-3-(4-(methylcarbamoyl)phenyl)-1H-indole-2-carboxylic acid], the IC50 is 12.6 nM in test [1] and 77.6 nM on IMP-1 (Imipenemase-1).
For the compound `Cc1ccc(-c2c(C(=O)O)[nH]c3c(C(C)C)cccc23)s1` [Example 89, 7-isopropyl-3-(5-methylthiophen-2-yl)-1H-indole-2-carboxylic acid], the IC50 was 26.9 nM in test [1] and 21.4 nM on IMP-1 (Imipenemase-1).
For the compound `CC(=O)NCc1ccc(-c2c(C(=O)O)[nH]c3c(C(C)C)cccc23)cc1` [Example 90, 3-(4-(acetamidomethyl)phenyl)-7-isopropyl-1H-indole-2-carboxylic acid], the results for the IC50 (in test [1]; on IMP-1 (Imipenemase-1)) were 12.6 nM and 61.7 nM, respectively.
The like results for `CN(C)C(=O)c1ccc(-c2c(C(=O)O)[nH]c3c(C(C)(C)C)cccc23)cc1` [Example 92, 7-(tert-butyl)-3-(4-(dimethylcarbamoyl)phenyl)-1H-indole-2-carboxylic acid] were, in that order, 53.7 nM and 79.4 nM.
Regarding `CN(C)S(=O)(=O)c1ccc(-c2c(C(=O)O)[nH]c3c(C(C)(C)C)cccc23)cc1` [Example 93, 7-(tert-butyl)-3-(4-(N,N-dimethylsulfamoyl)phenyl)-1H-indole-2-carboxylic acid], the results for the IC50 (in test [1]; at IMP-1 (Imipenemase-1)) were 79.4 nM and 85.1 nM, respectively.
On to `O=C(O)c1[nH]c2ccccc2c1-c1ccccc1` [Example 109, 3-phenyl-1H-indole-2-carboxylic acid], for which the IC50 in test [1] is 3160 nM.
Same read-out and setting: to `Cc1cccc2c(-c3ccc(F)cc3)c(C(=O)NNc3ccc(S(C)(=O)=O)cc3)[nH]c12` [Example 110, 3-(4-fluorophenyl)-7-methyl-N′-(4-(methylsulfonyl)phenyl)-1H-indole-2-carbohydrazide] belongs 2000 nM.
Same read-out and setting: for `CS(=O)(=O)c1ccc(NNC(=O)c2[nH]c3ccccc3c2-c2ccccc2)cc1` [Example 113, N′-(4-(methylsulfonyl)phenyl)-3-phenyl-1H-indole-2-carbohydrazide] the value was 7940 nM; for `Cc1cccc2cc(C(=O)O)[nH]c12` [Example 114, 7-methyl-1H-indole-2-carboxylic acid], 3160 nM.
Turning to `Cc1cccc2c(Br)c(C(=O)O)[nH]c12` [Example 115, 3-bromo-7-methyl-1H-indole-2-carboxylic acid], the IC50 in test [1] is 1580 nM.
Regarding `CC(C)c1cccc2c(-c3ccc(S(=O)(=O)N(C)C)cc3)c(C(N)=O)[nH]c12` [Example 125, 3-(4-(N,N-dimethylsulfamoyl)phenyl)-7-isopropyl-1H-indole-2-carboxamide], the “pIC50 NDM-1” value in test [1] was “N.I”.
On the same count and under the same terms, to `CC(C)c1cccc2c(-c3ccc(S(=O)(=O)N(C)C)cc3)c(C#N)[nH]c12` [Example 126, 4-(2-cyano-7-isopropyl-1H-indol-3-yl)-N,N-dimethylbenzenesulfonamide] belongs “N.I”.
As for `CC(C)c1cccc2c(-c3ccc(S(=O)(=O)N(C)C)cc3)c(C(=O)Nc3ncco3)[nH]c12` [Example 128, 3-(4-(N,N-dimethylsulfamoyl)phenyl)-7-isopropyl-N-(oxazol-2-yl)-1H-indole-2-carboxamide], the IC50 in test [1] was 214 nM.
